This passage reports IC33, Tmax and Activity results from ChEMBL document CHEMBL1137714, “Primaquine revisited six decades after its discovery” (Eur J Med Chem, 2009).

Each structure is given as a SMILES string.

Data set [1] concerns the target Acetylcholinesterase (Homo sapiens) (UniProt P22303). Nature of the data set: Inhibition of human erythrocyte AChE.
A short description of data set [2]: Tmax in po dosed human. It is filed as ADME, organism-based. Conditions: in vivo.
Data set [3] is filed under the species Homo sapiens. Put plainly: Toxicity in human assessed as incidence of abdominal cramps at 22.5 to 30 mg/day. It is filed as organism-based, Abdomen. The settings on record: in vivo.

One may read the Tmax as the time from dosing to the highest level.

Acetylcholinesterase (Homo sapiens), sequence (P22303 whole entry): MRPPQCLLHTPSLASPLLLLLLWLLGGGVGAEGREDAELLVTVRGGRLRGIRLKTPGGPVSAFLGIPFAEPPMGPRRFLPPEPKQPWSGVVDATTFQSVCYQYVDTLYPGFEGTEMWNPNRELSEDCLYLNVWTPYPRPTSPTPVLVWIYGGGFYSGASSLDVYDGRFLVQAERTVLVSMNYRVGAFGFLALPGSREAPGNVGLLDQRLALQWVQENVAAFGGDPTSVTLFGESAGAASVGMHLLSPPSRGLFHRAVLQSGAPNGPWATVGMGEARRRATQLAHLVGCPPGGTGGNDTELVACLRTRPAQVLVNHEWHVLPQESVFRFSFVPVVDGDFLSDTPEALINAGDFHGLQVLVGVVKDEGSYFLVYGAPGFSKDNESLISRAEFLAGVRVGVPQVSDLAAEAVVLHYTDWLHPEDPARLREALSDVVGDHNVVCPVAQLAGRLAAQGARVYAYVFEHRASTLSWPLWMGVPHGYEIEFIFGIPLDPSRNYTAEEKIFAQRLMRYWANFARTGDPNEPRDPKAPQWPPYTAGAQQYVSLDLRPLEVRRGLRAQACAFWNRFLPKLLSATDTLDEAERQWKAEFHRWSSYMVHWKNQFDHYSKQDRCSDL

As to `COc1cc(NC(C)CCCN)c2ncccc2c1` (stereo not drawn) [PRIMAQUINE], in data set [1], the IC33 was 30 µM. Moreover, the Tmax in data set [2] was found to be 12 h. Further, in data set [3], the Activity is on record as 10%.
